Measurements from ChEMBL document CHEMBL1201862, “PubChem BioAssay data set” (2004).
Activity calls are given as the source filed them. Cut-off read from the data, not from the text of the source, for most assays here: actives have a measured EC50 and inactives only a lower limit.

Columns and labels:
[1] = Luminescence Cell-Based Dose Confirmation HTS to Identify Activators of 5'UTR Stem-Loop Driven Alpha-Synuclein mRNA Translation in H4 Neuroglioblastoma Cells. [Related pubchem assays: 1829 (Project Summary), 1814 (Primary HTS)]; type: functional
[2] = Luminescence Cell-Based Dose Response HTS to Identify Activators of Luciferase Translation or Activity in H4 […] Cells. [Related pubchem assays: 1829 (Project Summary), 1814 (Primary HTS)]; type: functional
H4 = experiment: Luminescence Cell-Based Dose Response HTS to Identify Activators of 5'UTR Stem-Loop Driven Prion Protein mRNA Translation in H4 Neuroglioblastoma Cells. [Related pubchem assays: 1829 (Project Summary), 1814 (Primary HTS)]; type: functional; details: Homo sapiens
[3] = microbe, parasite or virus in culture; type: functional; details: Mycobacterium tuberculosis
BJ [4] = experiment: BJ-TERT fibroblast viability loss – cell-based, RAS-independent, luminescence, dose response (AID 1933); type: functional; details: Homo sapiens
BJ [5] = experiment: cells; type: functional, cell-based; details: Homo sapiens
BJ [6] = experiment: BJ-TERT-LT-ST fibroblast viability loss – cell-based, RAS-independent, luminescence, dose response (AID 1935); type: functional; details: Homo sapiens;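 note: BJ fibroblasts immortalized with TERT plus LT and ST oncogenes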
[7] = DRD fibroblast viability loss – cell-based, non-viral oncogenic, luminescence, dose response (AID 1934); type: functional; details: Homo sapiens
[8] = Luminescence Cell-Based Dose Retest to Confirm Inhibitors of Cancer Stem Cells. [Related pubchem assays (depositor defined):AID2717, AID2721]; type: functional; details: Homo sapiens
[9] = NIH-3T3 fibroblast cytotoxicity, dose response, cytotoxicity control, cell-based, fluorescence, Alamar Blue, secondary assay (AID 2327); type: functional;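 note: NIH-3T3 mouse fibroblasts cultured with fluconazole at 8 µg/mL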
[10] = test system: Streptococcus sp. 'group A'; experiment: Streptococcus pyogenes SK(-)GAS viability under kanamycin – luminescence, BacTiterGlo, confirmation, counter-screen for streptokinase expression inhibitor project, dose response (AID 1900); type: functional, organism-based
Streptokinase A = molecular target: T1, Streptokinase A (Streptococcus pyogenes serotype M1, UniProt P10520); experiment: viability-normalized secreted streptokinase activity reduction – plasminogen activation absorbance, OD405, dose response (AID 1914); type: functional, Streptococcus pyogenes M1 GAS;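 note: secreted streptokinase activity via plasminogen activation per viability signal from cell pellet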
T1 sequence (P10520 whole entry): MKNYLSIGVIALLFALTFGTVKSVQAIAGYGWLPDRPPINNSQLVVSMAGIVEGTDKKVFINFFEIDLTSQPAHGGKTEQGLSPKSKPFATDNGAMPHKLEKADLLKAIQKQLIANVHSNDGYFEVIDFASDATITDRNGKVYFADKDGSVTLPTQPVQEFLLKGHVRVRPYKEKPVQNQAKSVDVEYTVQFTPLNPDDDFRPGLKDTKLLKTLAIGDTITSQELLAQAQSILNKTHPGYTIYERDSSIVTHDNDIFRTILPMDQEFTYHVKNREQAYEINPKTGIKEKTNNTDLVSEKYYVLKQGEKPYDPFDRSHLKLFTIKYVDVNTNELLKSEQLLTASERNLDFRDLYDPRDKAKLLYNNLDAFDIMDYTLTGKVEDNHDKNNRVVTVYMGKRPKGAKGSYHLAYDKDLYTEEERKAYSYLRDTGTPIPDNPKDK

[11] = fluconazole-exposed Candida albicans growth modulators – fluorescence, retest, confirmation (AID 2467); type: functional, cell-based
[12] = Trypanosoma cruzi growth suppression in host cells – NIH3T3 host cells, beta-gal luminescence, confirmation (AID 2044); type: functional, cell-based;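 note: intracellular parasites grown in NIH/3T3 mouse fibroblasts as host cells; luminescent beta-galactosidase reporter signal from transgenic T. cruzi replicating inside host cells; inhibitors lower the luminescence signal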
[13] = NIH3T3 cell viability loss – ATP luminescence, mouse fibroblasts, counter-screen, dose response (AID 2010); type: functional, cell-based;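 note: cells exposed to compound for about 90 hours before reading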
Streptococcus = experiment: GAS UMAA2166 growth inhibition – luminescence, BacTiterGlo, counter-screen for streptokinase expression inhibitor project, dose response (AID 1915); type: functional, organism-based;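 note: potency for reduction of bacterial viability or growth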
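Throughout, for AC50: cells exposed to compound for roughly 70 hours or longer before luminescence read.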

Row | Structure (SMILES) | EC50 [1] | EC50 [2] | EC50 (H4) | CC50 [3] | further results
1 | O=C(/C=C/c1ccc(O)c([N+](=O)[O-])c1)c1ccc2ccccc2c1 | 16.6 µM (active) | 14.5 µM (active) | 17.9 µM (active) | > 40 µM (active) | –
2 | OCC(O)/C=N/Nc1nc(Nc2ccccc2)nc(Nc2ccccc2)n1 (centres undefined) | – | – | – | > 40 µM (active) | –
3 | C/C(=N\NC(=O)CN1CCCCC1)c1cccc([N+](=O)[O-])c1 | 13.6 µM (active) | 9.5 µM (active) | 26.9 µM (active) | – | –
4 | O=C(Nc1ccc(Cl)cc1)N1CCN(c2ccc3nnc(-c4ccc(F)cc4)n3n2)CC1 | – | – | – | 19.3 µM (active) | –
5 | CCC1=Nc2cc(C(=O)NCc3cccnc3)ccc2Sc2ccc(C)cc21 | – | – | – | – | EC50 (BJ [4]): 4.48 µM (active); EC50 (BJ [5]): 101 µM (active); EC50 (BJ [6]): 16.6 µM (active); EC50 [7]: 3.06 µM (active); AC50 [8]: 0.493 µM (active)
6 | Cc1ccc(C(=O)c2nc3c(n2O)CCCC3)cc1 | > 120 µM (not active) | > 120 µM (not active) | 25.7 µM (active) | – | –
7 | Clc1ccc(SCc2cn3ccsc3n2)cc1 | 89.9 µM (active) | 21 µM (active) | > 120 µM (not active) | – | –
8 | COc1cc2[nH]c3c(N4CCN(c5ccccn5)CC4)ncnc3c2cc1OC | – | – | – | 11.1 µM (active) | –
9 | COc1ccc(-c2cc(C3CCN(Cc4cccc(C(F)(F)F)c4)CC3)[nH]n2)cc1 | – | – | – | 35.5 µM (active) | EC50 [9]: > 160 µM (inactive); EC50 [10]: 25.1 µM (active); EC50 (Streptokinase A): > 150 µM (not active); EC50 [11]: > 38 µM (not active); EC50 [12]: 0.626 µM (active); EC50 [13]: > 60 µM (not active); EC50 (Streptococcus): > 150 µM (not active)
